In series [1] the test system is E. coli ATCC 35218. The class given is cell-based. As to conditions: for E. coli MIC: ATCC 35218. How it is done: Whereas the preceding generation of molecules was designed to elucidate structure function relationships of specific molecular parameters (chirality, length, hydrophobicity, etc.), another generation compounds were designed explicitly to explore effects on selectivity. Antimicrobial activity of these compounds was tested against bacterial strains E. coli (ATTC 35218) and B. subtilis (ATTC 6633) in cation-adjusted MHB using the microdilution protocols previously described. The sequences, antimicrobial activities, hemolytic activities, and metabolic inhibitory concentrations against NIH 3T3 mouse fibroblast cells are summarized in Table 3 and the rationale of their design is described below.
Screening antibacterial assays. MICs were determined in 96-well microtiter plates in accordance with CLSI M7-A6 protocols. Peptoid solutions with 50 μL total volume were prepared using 2:1 serial dilutions. 50 i—tL of bacteria inoculum (1×10^6 CFU/mL) prepared in cation-adjusted Mueller-Hinton broth (CAMHB) was added to test wells. Control wells contained 100 μL MHB (no growth) or 50 μL inoculums with 50 μL MHB with no peptoid. […] Reported values were reproducible over three experiments, each containing two parallel trials.
Antibacterial Assays for Compositions. MICs were determined according to CLSI M7-A6 protocols in a 96-well microtiter plate. In test wells, 50 μL bacterial inoculum (1×10^6 CFU/ml) in cation-adjusted Mueller-Hinton broth (CAMHB) was added to 50 μL peptoid solution in CAMHB (prepared by 1:2 serial dilutions). Positive controls contained 50 μL inoculum and 50 μL CAMHB without peptoid. […] MIC values reported were reproducible between three independent experimental replicates, each consisting of two parallel trials.

Series [2] can be described thus: MTS assay, NIH 3T3 cells. The class given is cell-based, mouse. As to conditions: mouse, NIH 3T3 fibroblast cells. An outline of the steps: (§1)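 NIH/3T3 cells seeded at 5,000 per well, grown a day in DMEM with 10% FBS, then washed and exposed to serially diluted peptoid in HBSS together with MTS reagent. Absorbance at 490 nm read after 3 hours at 37 °C as a measure of metabolic activity; mean of six replicates.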

In series [3] the test system is NIH 3T3 mouse fibroblast cells. The experiment in a line: MTS assay, NIH 3T3 cells. The format is cell-based. An outline of the steps:
as §1
In general terms: Formazan colour is commonly taken as a measure of viable cells.

Series [4] relates to human erythrocytes. Briefly: Hemolysis assay. The class given is cell-based. Put shortly: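 Peptoid dilution series (1:2 in PBS) combined with equal volume of 20 vol % human red cells from heparinised blood, 37 °C for 1 h. Released hemoglobin measured as supernatant absorbance at 350 nm post-centrifugation, scaled between PBS-only wells and 0.2 vol % Triton X-100 total lysis.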

Series [5] can be described thus: RP-HPLC solvent composition at elution as measure of molecular hydrophobicity. The class given is physicochemical. As to conditions: Table 8; gradient 5 to 95% ACN over 45 min, C18 column, 0.2 ml/min; average of three replicates. The source says:
An initial set of 15 ampetoid analogs was synthesized to determine whether peptoids are affected by structural and sequence modifications in a manner consistent with AMP activities. The designs for ampetoids in this library were derived from two antibacterial and selective amphipathic dodecamers, 1 and 2. Peptoid 1 [H-(Nlys-Nspe-Nspe)4-NH2] is composed of 2/3 Nspe, the peptoid analog of phenylalanine, and 1/3 Mys, the peptoid analog of lysine (see FIG. 1 for the structures of representative peptoid monomers and corresponding N-substituents). Peptoid 2 [H-(Mys-Nssb-Nspe)4-NH2] contains 1/3 isoleucine-like Nssb monomers in place of Nspe. The variant sequences were designed to effect changes in chirality, length, hydrophobicity, charge, and amphipathicity. All of these compounds were tested for antibacterial activity against representative BSL1 Gram-negative (E. coli JM109) and Gram-positive (B. subtilis BR151) bacterial strains. As an initial measure of selectivity, the lytic activity of the peptoids was determined against human erythrocytes. Table 1 summarizes the sequences synthesized, the solvent composition at RP-HPLC elution as a relative measure of molecular hydrophobicity, and antibacterial and hemolytic activities.
Following synthesis, peptoid oligomers can be cleaved from the resin, simultaneously removing the tert-butoxycarbonyl (Boc) protecting group from Mys residues, by treatment with 10 ml 2,2,2-trifluoroacetic acid (TFA)/triisopropylsilane/H2O (95:2.5:2.5 by volume) for 30 min. The cleavage mixture is then diluted with 25 ml 50% aqueous acetonitrile, frozen, and lyophilized. Dilution and lyophilization is repeated twice more in order to remove excess TFA. Subsequent to cleavage, peptoids are each purified to >97% homogeneity by preparative scale reversed-phase HPLC using a Waters Prep LC 4000 system, with Waters 2487 dual-wavelength UV detection, and gradient elution (solvent A, 0.1 vol % trifluoroacetic acid (TFA) in water; solvent B, 0.1 vol % TFA in acetonitrile) through a Vydac (Hysperia, Calif.) 214TP101550 C4 peptide/protein column (10-15 μm, 300 Å, 5×25 cm). Following prep HPLC, peptoid purities and crude yields were determined from analytical scale HPLC, performed with a Waters 2695 Separations Module with a Waters 2487 dual-wavelength UV detector and gradient elution (solvent A, 0.1 vol % TFA in water; solvent B, 0.1 vol % TFA in acetonitrile) through a Vydac C4 214TP53 peptide/protein column (5 μm, 300 Å, 3.2×250 mm). The precise gradient employed for HPLC depended on the identity and hydrophobicity of the oligomer in question. All analytical HPLC was performed at 0.5 ml/min flow and 58° C. Preparative HPLC was performed at 50 ml/min flow and room temperature.
Compound synthesis and purification. Peptoids were synthesized using an ABI 433A peptide synthesizer (Applied Biosystems, Inc.) on Rink amide MBHA resin (Novabiochem, Inc.) using the submonomer approach^3. Briefly, bromoacetic acid, activated by diisopropylcarbodiimide was used to form a bromocetylated intermediate on the terminal amide group. Bromide was then substituted with the desired primary amine through SN2 displacement to build the peptoid chain. The amines used in peptoid synthesis include benzylamine, octadecylamine, (s)-(+)-2-amino-3-methylbutane, (s)-α-methylbenzylamine, (r)-(α-methylbenzylamine (all purchased from Sigma-Aldrich), and N-tert-butoxycarbonyl-1,4 diaminobutane (Mys) that was made using a published procedure^83. Resin-bound peptoids were then exposed to a mixture of trifluoroacetic acid (TFA): triisopropylsilane:water (95:2.5:2.5, v:v:v) for ten minutes to cleave peptoids from the solid phase. Peptoids were purified by reversed-phase HPLC (RP-HPLC) (Waters Corporation) using a C18 column and a linear acetonitrile/water gradient. A final purity greater than 97% as measured by analytical RP-HPLC (Waters Corporation) was achieved, and the identity of each molecule was checked using electrospray ionization mass spectrometry. […]

Molecules are shown by their SMILES. Read-outs that look alike come from different tables or passages of the source. Square brackets hold non-standard residues; d marks the D form. Peptide text beside a SMILES is read from it. Nspe = C[C@H](NCC(=O)O)c1ccccc1; Nphe = O=C(O)CNCc1ccccc1; Nlys = NCCCCNCC(=O)O A value given as a limit tells only on which side of the number the result lay.

As for `C[C@@H](c1ccccc1)N(CC(N)=O)C(=O)CN(C(=O)CN(CCCCN)C(=O)CN(Cc1ccccc1)C(=O)CN(Cc1ccccc1)C(=O)CN(CCCCN)C(=O)CN(C(=O)CN(C(=O)CN(CCCCN)C(=O)CN(Cc1ccccc1)C(=O)CN(Cc1ccccc1)C(=O)CNCCCCN)[C@@H](C)c1ccccc1)[C@@H](C)c1ccccc1)[C@@H](C)c1ccccc1` [1-Npm2,3,8,9, H-(Nlys-Npm-Npm-Nlys-Nspe-Nspe)2-NH2], in series [1], the “E. coli MIC” value was determined as 6.3 µM. Also, the half-maximal cytotoxic concentration (CC50) at 3 h in series [2] was determined as 15 µM. Also, in series [3], the ID50 was found to be 15 µM.
As for `C[C@@H](c1ccccc1)N(CC(N)=O)C(=O)CN(C(=O)CN(CCCCN)C(=O)CN(C(=O)CN(C(=O)CN(CCCCN)C(=O)CN(C(=O)CN(C(=O)CN(CCCCN)C(=O)[C@@H]1CCCN1C(=O)CN(C(=O)CNCCCCN)[C@@H](C)c1ccccc1)[C@@H](C)c1ccccc1)[C@@H](C)c1ccccc1)[C@@H](C)c1ccccc1)[C@@H](C)c1ccccc1)[C@@H](C)c1ccccc1` [1-Pro3, H-Nlys-Nspe-L-Pro-(Nlys-Nspe-Nspe)3-NH2] (H-[Nlys][Nspe]P[Nlys][Nspe][Nspe][Nlys][Nspe][Nspe][Nlys][Nspe][Nspe]-NH2), in series [4], the HD10 amounted to 74 µM. The “E. coli MIC” value in series [1] worked out at 12.5 µM. The same molecule displayed a CC50 at 3 h in series [2] of 12 µM. This molecule also yielded an ID50 in series [3] of 12 µM.
For `C[C@@H](c1ccccc1)N(CC(N)=O)C(=O)CN(C(=O)CN(CCCCN)C(=O)[C@@H]1CCCN1C(=O)CN(C(=O)CN(CCCCN)C(=O)CN(C(=O)CN(C(=O)CN(CCCCN)C(=O)CN(C(=O)CN(C(=O)CNCCCCN)[C@@H](C)c1ccccc1)[C@@H](C)c1ccccc1)[C@@H](C)c1ccccc1)[C@@H](C)c1ccccc1)[C@@H](C)c1ccccc1)[C@@H](C)c1ccccc1` [1-Pro9, H-(Nlys-Nspe-Nspe)2-Nlys-Nspe-L-Pro-Nlys-Nspe-Nspe-NH2] (H-[Nlys][Nspe][Nspe][Nlys][Nspe][Nspe][Nlys][Nspe]P[Nlys][Nspe][Nspe]-NH2), the “E. coli MIC” value in series [1] is 12.5 µM. Further, the CC50 at 3 h in series [2] was found to be 24 µM. In series [3], this molecule came in with an ID50 of 24 µM.
Regarding `C[C@@H](c1ccccc1)N(CC(=O)N(CC(=O)N(CCCCN)CC(=O)N(CC(=O)N(CC(=O)N(CCCCN)CC(=O)N(CC(=O)N(CC(=O)N(CCCCN)CC(=O)N(CC(=O)N(CC(N)=O)Cc1ccccc1)Cc1ccccc1)Cc1ccccc1)Cc1ccccc1)Cc1ccccc1)Cc1ccccc1)Cc1ccccc1)C(=O)CNCCCCN` [1ach-Nspe2, H-(Nlys-Nspe-Npm)-(Nlys-Npm-Npm)3-NH2] (H-[Nlys][Nspe][Nphe][Nlys][Nphe][Nphe][Nlys][Nphe][Nphe][Nlys][Nphe][Nphe]-NH2), the “E. coli MIC” value in series [1] stood at 6.3 µM. In series [2], this molecule showed a 50% cytotoxic concentration (CC50) at 3 h of 11 µM. The ID50 in series [3] was found to be 11 µM.
As for `C[C@@H](c1ccccc1)N(CC(N)=O)C(=O)CN(Cc1ccccc1)C(=O)CN(CCCCN)C(=O)CN(Cc1ccccc1)C(=O)CN(Cc1ccccc1)C(=O)CN(CCCCN)C(=O)CN(Cc1ccccc1)C(=O)CN(Cc1ccccc1)C(=O)CN(CCCCN)C(=O)CN(Cc1ccccc1)C(=O)CN(Cc1ccccc1)C(=O)CNCCCCN` [1achiral-Nspe12, H-(Nlys-Npm-Npm)3-(Nlys-Npm-Nspe)-NH2], the HD50 in series [4] was above 200 µM. Also, in series [1], the “E. coli MIC” value was found to be 6.3 µM. This molecule also came in with a CC50 at 3 h in series [2] of 15 µM. Also, the ID50 in series [3] turned out to be 15 µM.
Consider `CC[C@H](C)[C@H](NC(=O)CN)C(=O)NCC(=O)N[C@@H](C)C(=O)N[C@H](C(=O)N[C@@H](CC(C)C)C(=O)N[C@@H](CCCCN)C(=O)N[C@H](C(=O)N[C@@H](CC(C)C)C(=O)N[C@H](C(=O)N[C@H](C(=O)NCC(=O)N[C@@H](CC(C)C)C(=O)N1CCC[C@H]1C(=O)N[C@@H](C)C(=O)N[C@@H](CC(C)C)C(=O)N[C@H](C(=O)N[C@@H](CO)C(=O)N[C@@H](Cc1c[nH]c2ccccc12)C(=O)N[C@H](C(=O)N[C@@H](CCCCN)C(=O)N[C@@H](CCCNC(=N)N)C(=O)N[C@@H](CCCCN)C(=O)N[C@@H](CCCNC(=N)N)C(=O)N[C@@H](CCC(N)=O)C(=O)N[C@@H](CCC(N)=O)C(N)=O)[C@@H](C)CC)[C@@H](C)CC)[C@@H](C)O)[C@@H](C)O)C(C)C)C(C)C` [melittin, reference compound], for which, in series [4] (Table 8), the HD50 amounted to 6 µM. Besides, in series [1] (Table 8, CAMHB), the “MIC for E. coli ATCC 35218” value was 12.5 µM. Also, the SR in series [1] (Table 8, calculated as HD10/E. coli MIC) is 0.16. The “% ACN at RP-HPLC elution” value in series [5] was 65.2 % ACN.

The CC50 is the concentration at which the toxic effect on the cells reaches its halfway point.

Source of the values: patent US20120295838A1, “Selective poly-substituted glycine antibiotics and related compositions” (priority 2008, published 2012).
